In PubChem BioAssay (NCI):
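In this assay, cells in 96-well plates receive the compound at five concentrations for 48 hours. Endpoints are linearly interpolated between the surrounding concentrations. GI50 = concentration required for 50% inhibition of growth. At the TGI there is no net growth.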

Legend:
Assay in all cases: growth of human tumour cells (NCI), 48 h
[1] = tested on: A498 renal
[2] = tested on: NCI-H460 lung
[3] = tested on: MCF7 breast
[4] = tested on: SNB-75 CNS
[5] = tested on: UO-31 renal
[6] = tested on: NCI-H23 lung
[7] = tested on: UACC-62 melanoma
[8] = tested on: MOLT-4 leukemia
[9] = tested on: UACC-257 melanoma
[10] = tested on: SR leukemia
[11] = tested on: TK-10 renal
[12] = tested on: K-562 leukemia
[13] = tested on: IGROV1 ovarian
[14] = tested on: RPMI-8226 leukemia
[15] = tested on: MDA-MB-231 breast
[16] = tested on: HS 578T breast
[17] = tested on: U251 CNS
[18] = tested on: OVCAR-3 ovarian
[19] = tested on: HCC-2998 colon
[20] = tested on: COLO 205 colon
[21] = tested on: SNB-19 CNS
[22] = tested on: SF-295 CNS
[23] = tested on: SW-620 colon
[24] = tested on: SK-MEL-2 melanoma
[25] = tested on: NCI-H226 lung
[26] = tested on: HCT-116 colon
[27] = tested on: KM12 colon
[28] = tested on: SK-MEL-28 melanoma
[29] = tested on: 786-0 renal
[30] = tested on: HT29 colon
[31] = tested on: HL-60(TB) leukemia
[32] = tested on: DU-145 prostate
[33] = tested on: CCRF-CEM leukemia
[34] = tested on: SK-MEL-5 melanoma
[35] = tested on: NCI-H522 lung
[36] = tested on: M14 melanoma
[37] = tested on: A549 NSCLC
[38] = tested on: OVCAR-5 ovarian
[39] = tested on: CAKI-1 renal
[40] = tested on: OVCAR-8 ovarian
[41] = tested on: SF-268 CNS
[42] = tested on: HCT-15 colon
[43] = tested on: ACHN renal
[44] = tested on: T-47D breast
[45] = tested on: BT-549 breast
[46] = tested on: SN12C renal
[47] = tested on: MDA-MB-435
[48] = tested on: OVCAR-4 ovarian
[49] = tested on: NCI/ADR-RES ovarian
[50] = tested on: PC-3 prostate
[51] = tested on: MALME-3M melanoma
[52] = tested on: HOP-62 NSCLC
[53] = tested on: SF-539 CNS
[54] = tested on: LOX IMVI melanoma
[55] = tested on: SK-OV-3 ovarian
[56] = tested on: EKVX NSCLC
[57] = tested on: HOP-92 NSCLC
[58] = tested on: RXF 393 renal

CC(=O)c1cc(CC2Cc3cc4c(cc3C2=O)CCC4)cc2c1CCC2 (configuration not stated)
TGI [1]: > 100 µM
TGI [2]: > 100 µM
TGI [3]: > 100 µM
TGI [4]: > 100 µM
TGI [5]: > 100 µM
TGI [6]: > 100 µM
TGI [7]: > 100 µM
TGI [8]: 90.5 µM
TGI [9]: > 100 µM
TGI [10]: > 100 µM
TGI [11]: > 100 µM
TGI [12]: > 100 µM
TGI [13]: > 100 µM
TGI [14]: 69.2 µM
TGI [15]: > 100 µM
TGI [16]: > 100 µM
TGI [17]: > 100 µM
TGI [18]: > 100 µM
TGI [19]: > 100 µM
TGI [20]: 76.2 µM
TGI [21]: > 100 µM
TGI [22]: > 100 µM
TGI [23]: > 100 µM
TGI [24]: > 100 µM
TGI [25]: > 100 µM
TGI [26]: > 100 µM
TGI [27]: > 100 µM
TGI [28]: > 100 µM
TGI [29]: > 100 µM
TGI [30]: > 100 µM
TGI [31]: 56.2 µM
TGI [32]: > 100 µM
TGI [33]: > 100 µM
TGI [34]: 61.2 µM
TGI [35]: > 100 µM
TGI [36]: > 100 µM
TGI [37]: > 100 µM
TGI [38]: > 100 µM
TGI [39]: > 100 µM
TGI [40]: > 100 µM
TGI [41]: > 100 µM
TGI [42]: > 100 µM
TGI [43]: > 100 µM
TGI [44]: > 100 µM
TGI [45]: > 100 µM
TGI [46]: > 100 µM
TGI [47]: > 100 µM
TGI [48]: > 100 µM
TGI [49]: > 100 µM
TGI [50]: > 100 µM
TGI [51]: > 100 µM
TGI [52]: > 100 µM
TGI [53]: > 100 µM
TGI [54]: > 100 µM
TGI [55]: > 100 µM
TGI [56]: > 100 µM

CN1C(=O)/C(=C2\S/C(=N\c3nnc(-c4ccccc4)o3)NC2=O)c2ccccc21
GI50 [2]: 65.6 µM
TGI [2]: > 100 µM
GI50 [3]: 91.9 µM
TGI [3]: > 100 µM
GI50 [57]: > 100 µM
TGI [57]: > 100 µM
GI50 [4]: > 100 µM
TGI [4]: > 100 µM
GI50 [5]: > 100 µM
TGI [5]: > 100 µM
GI50 [6]: > 100 µM
TGI [6]: > 100 µM
GI50 [7]: 79.2 µM
TGI [7]: > 100 µM
GI50 [8]: > 100 µM
TGI [8]: > 100 µM
GI50 [9]: 34.4 µM
TGI [9]: > 100 µM
GI50 [11]: > 100 µM
TGI [11]: > 100 µM
GI50 [12]: > 100 µM
TGI [12]: > 100 µM
GI50 [13]: 59.9 µM
TGI [13]: > 100 µM
GI50 [14]: > 100 µM
TGI [14]: > 100 µM
GI50 [15]: > 100 µM
TGI [15]: > 100 µM
GI50 [16]: > 100 µM
TGI [16]: > 100 µM
GI50 [17]: 66.4 µM
TGI [17]: > 100 µM
GI50 [18]: > 100 µM
TGI [18]: > 100 µM
GI50 [19]: > 100 µM
TGI [19]: > 100 µM
GI50 [20]: > 100 µM
TGI [20]: > 100 µM
GI50 [21]: > 100 µM
TGI [21]: > 100 µM
GI50 [22]: 41.2 µM
TGI [22]: > 100 µM
GI50 [23]: > 100 µM
TGI [23]: > 100 µM
GI50 [24]: > 100 µM
TGI [24]: > 100 µM
GI50 [58]: > 100 µM
TGI [58]: > 100 µM
GI50 [26]: 92.4 µM
TGI [26]: > 100 µM
GI50 [27]: > 100 µM
TGI [27]: > 100 µM
GI50 [28]: > 100 µM
TGI [28]: > 100 µM
GI50 [29]: > 100 µM
TGI [29]: > 100 µM
GI50 [30]: > 100 µM
TGI [30]: > 100 µM
GI50 [32]: > 100 µM
TGI [32]: > 100 µM
GI50 [33]: 63.7 µM
TGI [33]: > 100 µM
GI50 [34]: 90.1 µM
TGI [34]: > 100 µM
GI50 [35]: > 100 µM
TGI [35]: > 100 µM
GI50 [36]: > 100 µM
TGI [36]: > 100 µM
GI50 [37]: 43.9 µM
TGI [37]: > 100 µM
GI50 [38]: > 100 µM
TGI [38]: > 100 µM
GI50 [39]: 51.8 µM
TGI [39]: > 100 µM
GI50 [40]: > 100 µM
TGI [40]: > 100 µM
GI50 [41]: > 100 µM
TGI [41]: > 100 µM
GI50 [42]: > 100 µM
TGI [42]: > 100 µM
GI50 [43]: > 100 µM
TGI [43]: > 100 µM
GI50 [44]: > 100 µM
TGI [44]: > 100 µM
GI50 [45]: > 100 µM
TGI [45]: > 100 µM
GI50 [46]: > 100 µM
TGI [46]: > 100 µM
GI50 [47]: > 100 µM
TGI [47]: > 100 µM
GI50 [48]: > 100 µM
TGI [48]: > 100 µM
GI50 [49]: 84.7 µM
TGI [49]: > 100 µM
GI50 [50]: > 100 µM
TGI [50]: > 100 µM
GI50 [52]: 68.8 µM
TGI [52]: > 100 µM
GI50 [53]: > 100 µM
TGI [53]: > 100 µM
GI50 [54]: 77.9 µM
TGI [54]: > 100 µM
GI50 [55]: > 100 µM
TGI [55]: > 100 µM
GI50 [56]: > 100 µM
TGI [56]: > 100 µM
